Results taken from article PMC10281575, “PfCRT mutations conferring piperaquine resistance in falciparum malaria shape the kinetics of quinoline drug binding and transport” (PLOS Pathogens, 2023).
Several values for one entry are separate records, joined by “and”; a condition that tells them apart may be missing. Identical values can stand only once.

Biological target: T1, PfCRT^Dd2_F145I (Plasmodium falciparum, UniProt Q8IBZ9, A220S/F145I/I356T/K76T/M74I/N326S/N75E/Q271E/R371I)
T1 construct: expressed in transfected cells; host or cells: Xenopus laevis oocytes injected with in vitro transcribed RNA (pSP64T)
T1 sequence (Q8IBZ9 1-424 M74I/N75E/K76T/F145I/A220S/Q271E/N326S/I356T/R371I): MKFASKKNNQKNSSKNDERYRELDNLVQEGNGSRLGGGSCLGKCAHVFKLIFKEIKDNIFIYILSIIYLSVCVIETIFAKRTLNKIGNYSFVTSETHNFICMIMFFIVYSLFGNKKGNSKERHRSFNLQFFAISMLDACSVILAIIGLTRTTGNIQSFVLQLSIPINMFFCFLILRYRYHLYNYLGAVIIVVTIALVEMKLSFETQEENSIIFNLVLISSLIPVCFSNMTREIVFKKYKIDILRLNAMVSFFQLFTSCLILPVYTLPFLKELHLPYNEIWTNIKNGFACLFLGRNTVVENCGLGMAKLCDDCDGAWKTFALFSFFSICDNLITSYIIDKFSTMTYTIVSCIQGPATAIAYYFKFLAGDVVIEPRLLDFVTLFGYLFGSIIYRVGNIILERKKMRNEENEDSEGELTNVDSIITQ
Test: Competition plot (Vtotal versus proportion of PPQ in CQ/PPQ mixtures), PfCRT^Dd2_F145I
Format: cell-based
Conditions: for competition plot result (binding sites): CQ/PPQ mixtures, Vtotal dependent on P
Procedure: To test this hypothesis, we performed competition plot experiments, in which the enzyme or carrier is exposed to substrate mixtures that give the same transport rate for different substrates. The experiment is performed with substrate A labeled and then repeated with substrate B labeled. […] Similar results were found for PfCRT^Dd2_F145I.
Fig 3 Competition plot of the interaction of PfCRT^Dd2 (A) and PfCRT^Dd2_F145I (B) with CQ and PPQ. The competition plot tests whether two substrates bind to the same site or distinct sites on an enzyme or transporter. A competitive reaction would yield data points that lie on a horizontal line, whereas allosteric interactions would reveal a curved relationship. PfCRT-mediated drug uptake was measured from mixtures of radiolabeled CQ and PPQ that combined yielded an uptake close to saturation (Vtotal). Vtotal was subsequently analyzed as a function of the proportion of PPQ in the mixture (P). For more details see Materials and Methods. The mean ± SEM of at least 3 independent biological replicates are shown.
The competition plot was performed as described elsewhere. Briefly, a concentration of CQ and a concentration of PPQ were selected (using the parameters from Table 1), such that (i) the rate of PPQ transport was equivalent to the rate of CQ transport, and (ii) the transport rate for CQ (the less efficiently transported substrate) approached its Vmax. The resulting concentrations for PfCRT^Dd2 were [CQ]^max = 400 μM and [PPQ]^max = 23.1 μM. At these concentrations of CQ and PPQ, the expected uptake is 19.8 pmol h^-1 oocyte^-1. The resulting concentrations for PfCRT^Dd2_F145I were [CQ]^max = 400 μM and [PPQ]^max = 18.2 μM. At these concentrations of CQ and PPQ, the expected uptake is 18.2 pmol h^-1 oocyte^-1. A series of reaction buffers containing CQ and PPQ at concentrations [CQ] = (1—P) x [CQ]^max and [PPQ] = P x [PPQ]^max were assembled, where P is the proportion of PPQ in the mixture. […] These corresponded to values of P equal to 0, 0.25, 0.5, 0.75, 0.9 and 1. A plot of Vtotal as a function of P yielded the competition plots. If both substrates bind to the same site, then a constant Vtotal is expected across all P values (e.g. data lies on a horizontal line). If the substrates bind to different sites, and they inhibit each other’s transport, it is expected that the curve is concave with either a minimum or a maximum.

[1] = CQ/PPQ mixture, P = 0.25, single replicates
[2] = CQ/PPQ mixture, P = 0.5, single replicates
[3] = CQ/PPQ mixture, P = 0.75, single replicates
[4] = CQ/PPQ mixture, P = 0.9, single replicates

| Compound | PfCRTDd2_F145I-mediated CQ transport P = 0 (CQ/PPQ mixture, P = 0, single replicates) | PfCRTDd2_F145I-mediated CQ transport P = 0.25 [1] | PfCRTDd2_F145I-mediated CQ transport P = 0.5 [2] | PfCRTDd2_F145I-mediated CQ transport P = 0.75 [3] | PfCRTDd2_F145I-mediated CQ transport P = 0.9 [4] | competition plot result (binding sites) | PfCRTDd2_F145I-mediated PPQ transport P = 0.25 [1] | PfCRTDd2_F145I-mediated PPQ transport P = 0.5 [2] | PfCRTDd2_F145I-mediated PPQ transport P = 0.75 [3] | PfCRTDd2_F145I-mediated PPQ transport P = 0.9 [4] | PfCRTDd2_F145I-mediated PPQ transport P = 1 (CQ/PPQ mixture, P = 1, single replicates) |
| --- | --- | --- | --- | --- | --- | --- | --- | --- | --- | --- | --- |
| CCN(CC)CCCC(C)Nc1ccnc2cc(Cl)ccc12 (stereo not drawn) [CQ, chloroquine] | 14.23 pmol oocyte-1 h-1 and 18.19 pmol oocyte-1 h-1 and 22.31 pmol oocyte-1 h-1 | 16.38 pmol oocyte-1 h-1 and 14.89 pmol oocyte-1 h-1 and 14.95 pmol oocyte-1 h-1 | 11.20 pmol oocyte-1 h-1 and 13.42 pmol oocyte-1 h-1 and 11.66 pmol oocyte-1 h-1 | 8.54 pmol oocyte-1 h-1 and 5.74 pmol oocyte-1 h-1 and 7.98 pmol oocyte-1 h-1 | 3.23 pmol oocyte-1 h-1 and 2.52 pmol oocyte-1 h-1 | occupy different domains |  |  |  |  |  |
| Clc1ccc2c(N3CCN(CCCN4CCN(c5ccnc6cc(Cl)ccc56)CC4)CC3)ccnc2c1 [PPQ, piperaquine] |  |  |  |  |  | occupy different domains | 3.27 pmol oocyte-1 h-1 and 3.77 pmol oocyte-1 h-1 and 3.82 pmol oocyte-1 h-1 | 7.53 pmol oocyte-1 h-1 and 7.99 pmol oocyte-1 h-1 and 8.13 pmol oocyte-1 h-1 | 12.62 pmol oocyte-1 h-1 and 13.41 pmol oocyte-1 h-1 and 10.66 pmol oocyte-1 h-1 | 15.10 pmol oocyte-1 h-1 and 16.36 pmol oocyte-1 h-1 and 16.00 pmol oocyte-1 h-1 | 16.57 pmol oocyte-1 h-1 and 18.61 pmol oocyte-1 h-1 and 20.05 pmol oocyte-1 h-1 |
